Results from patent US11230547B2, “Purine inhibitors of human phosphatidylinositol 3-kinase delta” (Merck Sharp & Dohme Corp., priority 2017, dated 2022).

Key:
[1] = target: PI3Kdelta (Homo sapiens (Human), UniProt O00329); experiment: HTRF PI3K biochemical assay, delta isoform; settings: 0.3 nM enzyme, 100 uM ATP, 5 uM PIP2, form screened per table
Excerpt: (§1) HTRF PI3K Biochemical Assay to Measure Intrinsic Potency of Compound Inhibitors
(§2) The PI3-Kinase biochemical assays were developed to measure the intrinsic potency and compound dependent inhibition of the alpha, beta, delta, and gamma PI3K isoform enzymes. This assay was developed and further optimized from a kit produced by Upstate (Millipore catalog #33-047) (Millipore Sigma, Billerica Mass., USA) and has been configured for high throughput screening (HTS) and structure-activity relationship (SAR) screening. Briefly, this procedure exploits the exquisite specificity and high affinity binding of […] phosphatidyl(3,4,5)triphosphate (PIP3) to the GRP1 pleckstrin homology (PH) domain to generate the signal. In the absence of PIP3, an HTRF (Homogeneous Time-Resolved Fluorescence energy transfer) complex is formed consisting of europium (u)-labeled anti-GST, GST tagged GRP1-PH domain, biotin-PIP3 (biotinylated-PIP3) and streptavidin conjugated APC (Allophycocyanin). The native PIP3 produced by PI3-Kinase activity disrupts in a competitive manner the biotin-PIP3 from the pleckstrin homology (PH) domain, resulting in the loss of energy transfer (HTRF complex) and a decrease in the signal. The format of this assay is the same for all 4 isoforms of PI3K; the differences lie in the concentration of enzyme used to achieve robust assay window. The alpha, beta, and delta assays are run at 0.5, 1, and 0.3 nM enzymes and the gamma assay is run at 5 nM enzyme. The ATP concentration is 100 uM in the alpha, beta, and delta assays and 50 uM adenosine triphosphate (ATP) in the gamma assay. All reactions are run at 5 uM PIP2.
(§3) Compounds are serially diluted (3-fold in 100% DMSO) across a 384-well polypropylene source plated from column 3 to column 12 and column 13 to column 22, to yield 10 concentration dose response for each test compound. Columns 1, 2, 23 and 24 contain either only DMSO or pharmacological known control inhibitor. Once titrations are made, 2.5 nL of the compounds on 384 well plates are reformatted and transferred by acoustic dispense in quadruplicates to a 1536 assay plate (Greiner) to assay across all four PI3K isoform enzymes.
(§4) The PI3-Kinase biochemical assay was optimized using the HTRF kit provided by Upstate (Millipore). The assay kit contains six reagents: 1) 4× Reaction Buffer; 2) native PIP2 (substrate); 3) Stop (EDTA); 4) Detection Mix A (Streptavidin-APC); 5) Detection Mix B (Eu-labeled Anti-GST plus GST-tagged PH-domain); 6) Detection Mix C. In addition, the following items were obtained or purchased; PI3Kinase (catalog #'s alpha 14-602, beta 14-603, gamma 14-558 and delta 14-604 from Upstate Biotechnology now EMD Millipore, Mahopac, N.Y., USA), dithiothreitol (Sigma-Aldrich Corp. (St. Louis, Mo., USA) Catalog #D-5545), Adenosine-5′ triphosphate (InVitrogen (Waltham, Mass., USA), Cat#AS001A), native PIP3 (PI(3,4,5)P3, diC8, H^+, CELLSIGNALS, INC., (Columbus, Ohio, USA) Cat #907) DMSO ((Sigma-Aldrich Corp. (St. Louis, Mo., USA) Catalog #472301).
(§5) PI3Kinase Reaction Buffer is prepared by dilution the stock 1:4 with de-ionized water. DTT (DL-Dithiothreitol), phosphatidylinositol 4,5-bisphosphate (PIP2) and Biotin-PIP3 were added to 1536 assay plate at a final concentration of 5 mM, […] and 25 nM on the day of use. Enzyme addition and compound pre-incubation are initiated by the addition of 1.25 ul of PI3K (at twice its final concentration) in the 1× reaction buffer to all wells using a BioRaptr™ (Beckman Coulter, Waltham, Mass. USA). Plates are incubated at room temperature for 15 minutes. Reactions are initiated by addition of 1.25 ul of 2× substrate solution (PIP2 and ATP in 1× reaction buffer) using BioRaptr™. Plates are incubated in humidified chamber at room temperature for one hour. Reactions are quenched by addition of 0.625 uL of stop solution to all wells using the BioRaptr™. […]

[2] = target: PI3Kalpha (Homo sapiens (Human), UniProt P42336); experiment: HTRF PI3K biochemical assay, alpha isoform (selectivity versus delta); settings: relative ratio PI3K-alpha IC50 value / PI3K-delta IC50 value
PI3Kalpha, sequence (P42336 whole entry, canonical isoform): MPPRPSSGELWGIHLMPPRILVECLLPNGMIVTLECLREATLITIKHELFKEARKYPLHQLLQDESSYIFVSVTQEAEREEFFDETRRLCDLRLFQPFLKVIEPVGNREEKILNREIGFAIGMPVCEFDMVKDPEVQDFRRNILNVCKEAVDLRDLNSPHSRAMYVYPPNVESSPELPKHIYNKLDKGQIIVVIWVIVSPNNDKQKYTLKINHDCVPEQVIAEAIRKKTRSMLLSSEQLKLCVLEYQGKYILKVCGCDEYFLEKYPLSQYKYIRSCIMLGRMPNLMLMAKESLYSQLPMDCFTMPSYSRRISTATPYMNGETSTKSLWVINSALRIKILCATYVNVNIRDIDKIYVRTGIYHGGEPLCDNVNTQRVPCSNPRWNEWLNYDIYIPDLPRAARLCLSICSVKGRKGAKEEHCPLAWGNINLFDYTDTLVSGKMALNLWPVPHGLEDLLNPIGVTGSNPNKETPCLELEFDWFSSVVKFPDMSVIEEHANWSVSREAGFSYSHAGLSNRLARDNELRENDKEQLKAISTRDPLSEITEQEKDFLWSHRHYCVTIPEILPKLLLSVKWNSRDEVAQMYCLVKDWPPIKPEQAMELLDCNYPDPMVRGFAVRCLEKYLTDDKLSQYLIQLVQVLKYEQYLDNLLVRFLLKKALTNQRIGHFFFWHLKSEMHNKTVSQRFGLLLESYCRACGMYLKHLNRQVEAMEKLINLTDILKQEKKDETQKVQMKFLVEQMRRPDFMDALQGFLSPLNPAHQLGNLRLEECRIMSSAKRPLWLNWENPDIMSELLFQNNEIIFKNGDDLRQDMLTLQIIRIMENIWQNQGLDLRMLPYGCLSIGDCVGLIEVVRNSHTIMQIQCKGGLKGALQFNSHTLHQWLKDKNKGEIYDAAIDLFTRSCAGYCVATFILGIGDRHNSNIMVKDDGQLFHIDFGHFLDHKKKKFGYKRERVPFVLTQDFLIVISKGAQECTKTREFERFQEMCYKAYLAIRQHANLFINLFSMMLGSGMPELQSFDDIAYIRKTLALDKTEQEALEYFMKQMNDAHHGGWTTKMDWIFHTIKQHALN
PI3Kalpha, sequence (P27986 whole entry partner, canonical isoform): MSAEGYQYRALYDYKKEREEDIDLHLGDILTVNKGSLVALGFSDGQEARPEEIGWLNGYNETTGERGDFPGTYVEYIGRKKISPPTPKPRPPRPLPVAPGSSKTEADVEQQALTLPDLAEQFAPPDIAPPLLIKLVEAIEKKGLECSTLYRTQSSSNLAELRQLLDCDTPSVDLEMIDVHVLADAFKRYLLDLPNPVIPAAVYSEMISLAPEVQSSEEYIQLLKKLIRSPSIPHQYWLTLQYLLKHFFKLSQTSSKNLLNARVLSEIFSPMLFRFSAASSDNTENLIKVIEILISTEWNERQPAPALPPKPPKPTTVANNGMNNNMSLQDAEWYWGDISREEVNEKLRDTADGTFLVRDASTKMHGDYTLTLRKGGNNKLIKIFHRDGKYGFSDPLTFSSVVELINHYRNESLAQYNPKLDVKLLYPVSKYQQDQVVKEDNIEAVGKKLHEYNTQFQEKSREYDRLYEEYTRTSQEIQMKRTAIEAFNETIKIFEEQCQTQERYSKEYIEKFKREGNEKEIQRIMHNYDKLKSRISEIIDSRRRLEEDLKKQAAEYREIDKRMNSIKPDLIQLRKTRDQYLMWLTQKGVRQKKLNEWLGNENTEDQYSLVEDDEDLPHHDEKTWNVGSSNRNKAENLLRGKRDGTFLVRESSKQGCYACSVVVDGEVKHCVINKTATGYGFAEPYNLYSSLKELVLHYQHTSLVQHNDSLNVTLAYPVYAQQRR
Excerpt: as §1, §2, §3, §4, §5

PI3Kdelta, sequence (O00329 whole entry, canonical isoform): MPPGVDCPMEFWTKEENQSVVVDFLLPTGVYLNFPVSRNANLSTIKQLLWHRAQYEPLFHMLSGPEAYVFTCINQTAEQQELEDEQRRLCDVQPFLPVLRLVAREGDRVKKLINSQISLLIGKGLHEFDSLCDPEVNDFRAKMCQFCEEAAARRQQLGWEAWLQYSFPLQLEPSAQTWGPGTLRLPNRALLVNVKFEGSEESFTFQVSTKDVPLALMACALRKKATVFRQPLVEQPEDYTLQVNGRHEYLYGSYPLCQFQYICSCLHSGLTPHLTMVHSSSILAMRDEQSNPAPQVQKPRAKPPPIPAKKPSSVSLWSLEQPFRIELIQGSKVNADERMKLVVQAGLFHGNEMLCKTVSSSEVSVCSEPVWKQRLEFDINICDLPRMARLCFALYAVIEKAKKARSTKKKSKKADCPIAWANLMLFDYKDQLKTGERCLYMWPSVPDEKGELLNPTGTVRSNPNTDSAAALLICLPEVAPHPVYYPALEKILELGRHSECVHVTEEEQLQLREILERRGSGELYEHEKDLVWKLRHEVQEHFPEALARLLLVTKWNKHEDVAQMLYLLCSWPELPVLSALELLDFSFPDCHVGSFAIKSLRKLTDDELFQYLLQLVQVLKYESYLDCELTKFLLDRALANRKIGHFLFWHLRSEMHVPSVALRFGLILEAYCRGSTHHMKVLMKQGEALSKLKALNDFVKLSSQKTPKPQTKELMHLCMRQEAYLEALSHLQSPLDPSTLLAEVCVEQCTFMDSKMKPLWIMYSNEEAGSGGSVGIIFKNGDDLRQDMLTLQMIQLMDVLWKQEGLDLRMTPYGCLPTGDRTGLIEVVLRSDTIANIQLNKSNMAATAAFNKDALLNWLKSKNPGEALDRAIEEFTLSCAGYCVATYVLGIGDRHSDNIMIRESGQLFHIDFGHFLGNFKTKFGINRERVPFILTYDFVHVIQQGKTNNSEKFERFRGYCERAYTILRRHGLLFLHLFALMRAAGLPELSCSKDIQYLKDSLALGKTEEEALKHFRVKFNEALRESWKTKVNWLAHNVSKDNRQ
PI3Kdelta, sequence (P27986 whole entry partner, canonical isoform): as the sequence (P27986 whole entry partner, canonical isoform) above

SMILES	IC50 [1]	Selectivity versus PI3Kalpha [2]
CC(C)C[C@@H]1CN(c2nc(-c3cnn(C)c3)ncc2C#N)CCN1C(=O)C1CC1 [Compound 5-6, 4-[(3R)-4-(cyclopropylcarbonyl)-3-(2-methylpropyl)piperazin-1-yl]-2-(1-methyl-1H-pyrazol-4-yl)pyrimidine-5-carbonitrile]	190 nM	>10
C[C@@H]1CN(c2ncc(C(F)F)c(-c3cnn(C)c3)n2)CCN1C(=O)C1CC1 [Compound 5-11, 2-[(3R)-4-(cyclopropylcarbonyl)-3-methylpiperazin-1-yl]-5-(difluoromethyl)-4-(1-methyl-1H-pyrazol-4-yl)pyrimidine]	370 nM	>10
Cn1cc(-c2ncc(C#N)c(N3CC4C[C@H]3CN4c3cccc(C(C)(C)O)c3)n2)cn1 (stereo in doubt) [Compound 1-5, 4-{(1S,4R)-5-[3-(1-hydroxy-1-methylethyl)phenyl]-2,5-diazabicyclo[2.2.1]hept-2-yl}-2-(1-methyl-1H-pyrazol-4-yl)pyrimidine-5-carbonitrile]	220 nM	>10
Cn1cc(-c2ncc(C#N)c(N3CC4C[C@H]3CN4c3cccc(C4(C)CC4)c3)n2)cn1 (stereo in doubt) [Compound 1-12, 4-{(1S,4R)-5-[3-(1-methylcyclopropyl)phenyl]-2,5-diazabicyclo[2.2.1]hept-2-yl}-2-(1-methyl-1H-pyrazol-4-yl)pyrimidine-5-carbonitrile]	410 nM	>10
Cc1c(-c2ncc(C#N)c(N3CCN(C(=O)C4CC4)[C@H](C)C3)n2)cnn1C [Compound 6-29, 4-[(3R)-4-(cyclopropylcarbonyl)-3-methylpiperazin-1-yl]-2-(1,5-dimethyl-1H-pyrazol-4-yl)pyrimidine-5-carbonitrile]	81 nM	>10
C[C@@H]1CN(c2nc(-c3cnn(C)c3)ncc2C#N)CCN1C(=O)C1CCC1 [Compound 4-3, 4-[(3R)-4-(cyclobutylcarbonyl)-3-methylpiperazin-1-yl]-2-(1-methyl-1H-pyrazol-4-yl)pyrimidine-5-carbonitrile]	370 nM	>10
C[C@@H]1CN(c2nc(-c3cnn(C)c3)nc(NCC3COC3)c2C#N)CCN1C(=O)C1CC1 [Compound 6-18, 4-[(3R)-4-(cyclopropylcarbonyl)-3-methylpiperazin-1-yl]-2-(1-methyl-1H-pyrazol-4-yl)-6-[(oxetan-3-ylmethyl)amino]pyrimidine-5-carbonitrile]	49 nM	>10
C[C@@H]1C[C@H]1C(=O)N1CCN(c2nc(-c3cnn(C)c3)ncc2C#N)C[C@H]1C [Compound 4-8, 4-[(3R)-3-methyl-4-{[(1R,2R)-2-methylcyclopropyl]carbonyl}piperazin-1-yl]-2-(1-methyl-1H-pyrazol-4-yl)pyrimidine-5-carbonitrile]	32 nM	>10
Cn1cc(-c2ncc(C#N)c(N3CC4C[C@H]3CN4C(=O)C3CC3)n2)cn1 (stereo in doubt) [Compound 2-1, 4-[(1S,4R)-5-(cyclopropylcarbonyl)-2,5-diazabicyclo[2.2.1]hept-2-yl]-2-(1-methyl-1H-pyrazol-4-yl)pyrimidine-5-carbonitrile]	160 nM	>10
C[C@@H]1CN(c2nc(-c3cnn(C)c3)nc(OCC(F)(F)F)c2C#N)CCN1C(=O)C1CC1 [Compound 6-22, 4-[(3R)-4-(cyclopropylcarbonyl)-3-methylpiperazin-1-yl]-2-(1-methyl-1H-pyrazol-4-yl)-6-(2,2,2-trifluoroethoxy)pyrimidine-5-carbonitrile]	9.7 nM	>10
Cn1cc(-c2ncc(C#N)c(N3CC4C[C@H]3CN4c3cccc(C4CC4)c3)n2)cn1 (stereo in doubt) [Compound 1-11, 4-[(1S,4R)-5-(3-cyclopropylphenyl)-2,5-diazabicyclo[2.2.1]hept-2-yl]-2-(1-methyl-1H-pyrazol-4-yl)pyrimidine-5-carbonitrile]	130 nM	>10
N#Cc1cnc(-c2ccnc3[nH]ccc23)nc1N1C[C@@H]2CC1CN2c1cccc(F)c1 (stereo in doubt) [Compound 1-17, 4-[(1R,4S)-5-(3-fluorophenyl)-2,5-diazabicyclo[2.2.1]hept-2-yl]-2-(1H-pyrrolo[2,3-b]pyridin-4-yl)pyrimidine-5-carbonitrile]	56 nM	>10
C[C@@H]1CN(c2ncc(C#N)c(-c3cnn(C)c3)n2)CCN1C(=O)C1CC1 [Compound 5-4, 2-[(3R)-4-(cyclopropylcarbonyl)-3-methylpiperazin-1-yl]-4-(1-methyl-1H-pyrazol-4-yl)pyrimidine-5-carbonitrile]	21 nM	>10
N#Cc1cnc(-c2cnc3[nH]ccc3c2)nc1N1C[C@@H]2CC1CN2c1cccc(F)c1 (stereo in doubt) [Compound 1-18, 4-[(1R,4S)-5-(3-fluorophenyl)-2,5-diazabicyclo[2.2.1]hept-2-yl]-2-(1H-pyrrolo[2,3-b]pyridin-5-yl)pyrimidine-5-carbonitrile]	920 nM	8
Cn1cc(-c2ncc(C#N)c(N3C[C@H]4C[C@H]3CN4c3cccc([N+](=O)[O-])c3)n2)cn1 [Compound 1-10, 2-(1-methyl-1H-pyrazol-4-yl)-4-[(1S,4R)-5-(3-nitrophenyl)-2,5-diazabicyclo[2.2.1]hept-2-yl]pyrimidine-5-carbonitrile]	38 nM	
Cc1nc(-c2cnn(C)c2)nc(N2CCN(C(=O)C3CC3)[C@H](C)C2)c1C#N [Compound 6-10, 4-[(3R)-4-(cyclopropylcarbonyl)-3-methylpiperazin-1-yl]-6-methyl-2-(1-methyl-1H-pyrazol-4-yl)pyrimidine-5-carbonitrile]	180 nM	>10
C[C@@H]1CN(c2ncc(C#CCO)c(-c3cnn(C)c3)n2)CCN1C(=O)C1CC1 [Compound 5-1, 3-{2-[(3R)-4-(cyclopropylcarbonyl)-3-methylpiperazin-1-yl]-4-(1-methyl-1H-pyrazol-4-yl)pyrimidin-5-yl}prop-2-yn-1-ol]	19 nM	>10
N#Cc1cnc(-c2cccc3cnccc23)nc1N1C[C@@H]2CC1CN2c1cccc(F)c1 (stereo in doubt) [Compound 1-21, 4-[(1R,4S)-5-(3-fluorophenyl)-2,5-diazabicyclo[2.2.1]hept-2-yl]-2-isoquinolin-5-ylpyrimidine-5-carbonitrile]	110 nM	>10
C[C@@H]1CN(c2nc(-c3cnn(C)c3)c(C#N)c(C3CC3)n2)CCN1C(=O)C1CC1 [Compound 6-27, 4-cyclopropyl-2-[(3R)-4-(cyclopropylcarbonyl)-3-methylpiperazin-1-yl]-6-(1-methyl-1H-pyrazol-4-yl)pyrimidine-5-carbonitrile]	32 nM	>10
Cn1cc(-c2ncc(C#N)c(N3CC4C[C@H]3CN4c3cccc([N+](=O)[O-])c3)n2)cn1 (stereo in doubt) [Compound 1-10, 2-(1-methyl-1H-pyrazol-4-yl)-4-[(1S,4R)-5-(3-nitrophenyl)-2,5-diazabicyclo[2.2.1]hept-2-yl]pyrimidine-5-carbonitrile]		>10
